Like-named read-outs stand apart in the source and are kept apart here.
Tests used:
CB1 receptor = CB1 receptor (Rattus norvegicus, UniProt P20272); test: biochemical; format: binding; details: for Ki: 1 nM [3H] CP 55,940, rat whole brain P2 membranes, 30° C. for 1 hr
Method: (§1) Male ICR mice (25-32 g), purchased from Harlan (Dublin, Va.), were housed in groups of five. All animals were kept in a temperature-controlled (20-22° C.) environment with a 12-hour light-dark cycle (lights on at 7 a.m.). Separate mice were used for testing each drug dose in the in vivo behavioral procedures. The mice were maintained on a […] light: dark cycle, and received food and water ad libitum. Brain tissue for binding studies was obtained from male Sprague-Dawley rats (150-200 g) purchased from Harlan Laboratories (Dublin, Va.).
All assays, as described briefly below, were performed in triplicate, and the results represent the combined data from three to six individual experiments. Following decapitation and rapid removal of the brain, whole brain was homogenized and centrifuged. The resulting pellet was termed P1. The supernatant was saved and combined with the two subsequent supernatants obtained from washing of the P1 pellet. The combined supernatant fractions were centrifuged, resulting in the P2 pellet. After further incubation and centrifuging, this pellet was resuspended in assay buffer to a protein concentration of approximately 2 mg/ml. The membrane preparation was quickly frozen in a bath solution of dry ice and 2-methylbutane (Sigma Chemical Co., St. Louis, Mo.), then stored at −80° C. for no more than 2 weeks. […] Binding was initiated by the addition of 150 μg of P2 membrane to test tubes containing 1 nM of [3H] […] Following incubation at 30° C. for 1 hr, binding was terminated by addition of ice-cold buffer and vacuum filtration through pretreated filters in a 12-well sampling manifold (Millipore, Bedford, Mass.). After washing, filters were placed into plastic scintillation vials (Packard, Downer Grove, Ill.) and shaken. The quantity of radioactivity present was determined by liquid scintillation spectrometry.

mice [1] = test: Spontaneous (locomotor) activity in mice, compound alone (agonism test); format: in vivo; details: for ED50 / SA: > dose, 50% activity not achieved at this highest dose tested: mice, i.v.
Method: as §1
(§2) Measurement of spontaneous activity in mice occurred in standard activity chambers interfaced with a Digiscan Animal Activity Monitor (Omnitech Electronics, Inc., Columbus, Ohio). A standard tail-flick apparatus (described by Dewey et al., 1970) and a digital thermometer (Fisher Scientific, Pittsburgh, Pa.) were used to measure antinociception and rectal temperature, respectively.
(§3) All drugs were administered to the mice intravenously (i.v.) in the tail vein at a volume of 0.1 ml/10 g.
(§4) Maximum latency of 10 sec was used.

mice [2] = test: Tail-flick antinociception in mice, compound alone (agonism test); format: in vivo; details: for ED50: Mus musculus, iv
Method: as §1, §2, §3, §4

mice [3] = test: Rectal temperature (hypothermia) in mice, compound alone (agonism test); format: in vivo; details: for ED50: Mus musculus, iv
Method: as §1, §2, §3, §4

mice [4] = test: Spontaneous activity in mice, compound in combination with 3 mg/kg Δ^9-THC (antagonism test); format: in vivo; details: for SA: maximum % antagonism of 3 mg/kg Δ^9-THC: analog 10 min before Δ^9-THC
Method: as §1, §2, §3, §4

mice [5] = test: Rectal temperature in mice, compound in combination with 3 mg/kg Δ^9-THC (antagonism test); format: in vivo
Method: as §1, §2, §3, §4

mice [6] = test: Tail-flick antinociception in mice, compound in combination with 3 mg/kg Δ^9-THC (antagonism test); format: in vivo
Method: as §1, §2, §3, §4

[7] = at the dose(s) [mg/kg] given in parentheses in the cell
[8] = Mus musculus, iv, read-out: SA: > dose, 50% activity not achieved at this highest dose tested
[9] = read-out: TF: > dose, 50% activity not achieved at this highest dose tested
[10] = read-out: RT: > dose, 50% activity not achieved at this highest dose tested

Chain of CB1 receptor (P20272 whole entry): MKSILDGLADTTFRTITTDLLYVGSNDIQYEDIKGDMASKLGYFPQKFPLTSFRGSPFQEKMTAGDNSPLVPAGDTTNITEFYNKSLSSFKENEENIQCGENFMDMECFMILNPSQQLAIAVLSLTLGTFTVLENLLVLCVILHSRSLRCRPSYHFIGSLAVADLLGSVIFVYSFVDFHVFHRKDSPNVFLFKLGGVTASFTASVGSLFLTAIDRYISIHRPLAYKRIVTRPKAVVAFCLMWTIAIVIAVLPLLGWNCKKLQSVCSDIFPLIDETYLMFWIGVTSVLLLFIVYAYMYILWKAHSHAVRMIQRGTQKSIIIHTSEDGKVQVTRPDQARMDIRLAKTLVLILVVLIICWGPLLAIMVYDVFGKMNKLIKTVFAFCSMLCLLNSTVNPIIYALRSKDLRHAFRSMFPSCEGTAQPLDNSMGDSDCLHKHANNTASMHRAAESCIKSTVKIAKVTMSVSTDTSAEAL

Row | Compound | Ki (CB1 receptor; Ki (nM)) [nM] | Ki (CB1 receptor; read-out: Ki) [nM] | ED50 (mice [1]; [8]) [mg/kg] | ED50 (mice [2]; [9]) [mg/kg] | ED50 (mice [3]; [10]) [mg/kg] | Max stim of spontaneous locomotor activity, Compound Alone (mice [1]; at 1 mg/kg i.v.) | SA: > dose, 50% activity not achieved at this highest dose tested (mice [1]) [mg/kg] | TF: > dose, 50% activity not achieved at this highest dose tested (mice [2]; i.v.) [mg/kg] | RT: > dose, 50% activity not achieved at this highest dose tested (mice [3]; i.v.) [mg/kg] | SA: maximum % antagonism of 3 mg/kg Δ^9-THC (mice [4]; at 3 mg/kg i.v.) | Max % inhibit of spontaneous locomotor activity, Compound with 3 mg/kg Δ^9-THC (mice [4]; at 0.3 mg/kg i.v.) | Max stim of spontaneous locomotor activity, Compound with 3 mg/kg Δ^9-THC (mice [4]; at 10 mg/kg i.v.) | other results
1 | CCCNC(=O)c1nn(-c2ccc(Cl)cc2Cl)c(-c2ccc(Cl)cc2)c1C [Compound O-1399, N-(n-propyl)-5-(4-chlorophenyl)-1-(2,4-dichlorophenyl)-4-methyl-1H-pyrazole-3-carboxamide] | 167 ± 32 | – | – | – | – | – | – | – | – | – | – | – | CB1 binding affinity, fold decrease on shortening the n-pentyl amide (CB1 receptor; compared to O-1269): 5 fold; inhibition in vivo at 30 mg/kg (mice [1]; Mus musculus, iv, at 30 mg/kg i.v., read-out: Max % inhibit of spontaneous locomotor activity, Compound Alone): 100%; ED50 (mice [1]; Mus musculus, iv, 95% confidence limits in parentheses, * = estimated ED50, dose-effect curve not linear, read-out: SA (suppression of spontaneous activity) ED50): 9 µmol/kg; Max stim of spontaneous locomotor activity, Compound Alone (in words) (mice [1]; [7]): None (3, 10 & 30); ED50 (mice [2]; 20 min, i.v., 20 min post-injection, 95% confidence limits in parentheses, * = estimated ED50, dose-effect curve not linear, read-out: TF (tail flick, % MPE) ED50): 24 µmol/kg; ED50 (mice [3]; 0.5 h, i.v., 30 min post-injection, 95% confidence limits in parentheses, read-out: RT (rectal temperature) ED50): 10 µmol/kg
2 | CCCCC(C)c1c(C)c(C(=O)NN2CCCCC2)nn1-c1ccc(Cl)cc1Cl (stereo not drawn) [Compound O-1559] | – | 233 | > 30 | > 30 | > 30 | – | – | – | – | – | – | – | change in vivo at 30 mg/kg (mice [1]; Mus musculus, iv, at 30 mg/kg i.v., read-out: Max stim of spontaneous locomotor activity, Compound Alone): 118%; Max % inhibit of spontaneous locomotor activity, Compound Alone (in words: stimulation instead of inhibition) (mice [1]; doses in mg/kg): stim at 3, 10 & 30
3 | CCCCCc1ccc(-c2c(-c3ccc(Cl)cc3Cl)nn(C(=O)NN3CCCCC3)c2Br)cc1 [Compound O-1691, N-(N-Piperdyl)-3-(2,4-dichlrophenyl)-4-(4′-pentylphenyl)-5-bromopyrazole-carboxamide] | – | 1.5 ± 0.22 | – | – | – | 66% (1) | >30 | >30 | >30 | – | – | – | Max % inhibit of spontaneous locomotor activity, Compound Alone (mice [1]; at 3 mg/kg i.v.): 15% (3); Max % inhibit of spontaneous locomotor activity, Compound with 3 mg/kg Δ^9-THC (mice [4]; at 0.1 mg/kg i.v.): 91% (0.1); SA: maximum % antagonism of 3 mg/kg Δ^9-THC (mice [4]; at 0.3 mg/kg i.v.): 6% (0.3); Max stim of spontaneous locomotor activity, Compound with 3 mg/kg Δ^9-THC (mice [4]; at 3 mg/kg i.v.): 150% (3)
4 | CCCCCc1ccc(-c2cc(C(=O)NN3CCCCC3)nn2-c2ccc(Cl)cc2Cl)cc1 [Compound O-1710] | 27 ± 0.86 | – | > 30 | > 30 | > 30 | – | – | – | – | 50% (3) | – | – | RT: maximum % antagonism of 3 mg/kg Δ^9-THC (mice [5]; at 1 mg/kg i.v.): 51% (1); CB1 binding affinity, fold decrease by hydrogen substitution at position 4 (CB1 receptor; compared to the p-pentylphenyl analog with 4-methyl): 12 fold; change in vivo at 1 mg/kg (mice [1]; Mus musculus, iv, at 1 mg/kg i.v., read-out: Max stim of spontaneous locomotor activity, Compound Alone): 4%; inhibition in vivo at 10 mg/kg (mice [1]; Mus musculus, iv, at 10 mg/kg i.v., read-out: Max % inhibit of spontaneous locomotor activity, Compound Alone): 42%; Max % inhibit of spontaneous locomotor activity, Compound with 3 mg/kg Δ^9-THC (mice [4]; at 10 mg/kg i.v.): 82% (10); Max stim of spontaneous locomotor activity, Compound with 3 mg/kg Δ^9-THC (in words) (mice [4]; [7]): None (0.3, 1, 3, & 10); % MPE: maximum % antagonism of 3 mg/kg Δ^9-THC (mice [6]; at 10 mg/kg i.v.): 62% (10)
5 | N-(N-Piperdyl)-3-(2,4-dichlrophenyl)-4-(4′-(1′-methylpentyl)phenyl)-5-methylpyrazole carboxamide [Compound O-1690] | – | 2.6 ± 0.13 | – | – | – | – | >30 | >30 | >30 | – | 88% (0.3) | 39% (10) | antagonist potency, fold increase for hypothermia (mice [5]; compared to O-1302): approximately 3 fold; Max % inhibit of spontaneous locomotor activity, Compound Alone (mice [1]; at 10 mg/kg i.v.): 24% (10); Max stim of spontaneous locomotor activity, Compound Alone (mice [1]; at 30 mg/kg i.v.): 18% (30); SA: maximum % antagonism of 3 mg/kg Δ^9-THC (mice [4]; at 1 mg/kg i.v.): 65% (1); antagonist potency, fold increase for antinociception (mice [6]; compared to O-1302): approximately 3 fold
6 | N-(N-Piperdyl)-3-(2,4-dichlrophenyl)-4-(4″-pentylphenyl)-5-iodopyrazole-carboxamide [Compound O-1704] | – | 2.2 | – | – | – | 57% (1) | >30 | >30 | >30 | 65% (3) | 85% (0.3) | 49% (10) | Max % inhibit of spontaneous locomotor activity, Compound Alone (mice [1]; at 30 mg/kg i.v.): 19% (30)
